From US12365658B2, “Benzothia(di)azepine compounds and their use as bile acid modulators” (Albireo AB, priority 2021, dated 2025)
Each block holds one compound with its values, some of them ahead of it.

How the values were obtained:
Human IBAT = biological target: T1, Human IBAT (Homo sapiens, UniProt Q12908); experiment: IBAT (h/m) assay, human IBAT-overexpressing cells, 3H-taurocholic acid uptake; assay type: cell-based; details: 0.25 μM 3H-taurocholic acid and 5 μM cold taurocholic acid, 20 minutes, highest test concentration 10 μM, read-out: hIBAT IC50
T1 construct: expressed in transfected cells; kept under Puromycin selection
T1 sequence (Q12908 1-348): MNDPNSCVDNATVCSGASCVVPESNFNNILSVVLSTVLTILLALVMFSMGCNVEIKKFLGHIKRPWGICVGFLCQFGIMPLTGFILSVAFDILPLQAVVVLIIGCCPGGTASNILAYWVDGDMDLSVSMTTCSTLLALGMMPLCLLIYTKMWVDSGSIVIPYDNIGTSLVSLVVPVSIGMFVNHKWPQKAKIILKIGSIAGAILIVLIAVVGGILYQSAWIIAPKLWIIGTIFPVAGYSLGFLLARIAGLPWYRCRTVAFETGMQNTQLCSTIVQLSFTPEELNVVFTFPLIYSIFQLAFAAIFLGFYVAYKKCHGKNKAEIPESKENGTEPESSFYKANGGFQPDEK
Procedure: IBAT (h/m) Assay Protocol
10,000 cells (Human or Mouse IBAT-overexpressing cells) were seeded in 96-wells plate (Corning CLS3809) in 200 μL MEM-alpha medium (Gibco 12571-063) supplemented with 10% FBS (Gibco 10438026) containing Puromycin (Gibco A1113803) (10 μg/mL) and incubated at 37° C. in 5% CO2 for 48 hours. After incubation, media was decanted from the wells and cells were washed two times with 300 μL of basal MEM-alpha medium (FBS-free). After decanting basal MEM-alpha medium each time, plates were tapped against paper towel to ensure maximum removal of residual media. Test inhibitor dilutions (highest test concentration being 10 μM, 3-fold serial dilution, 10 points) prepared in DMSO (Sigma D2650) were added in incubation mix (maintaining 0.2% final DMSO concentration) containing 0.25 μM 3H-taurocholic acid (ARC ART-1368) and 5 μM of cold taurocholic acid (Sigma T4009). 50 μL of incubation mix containing test inhibitors was then added to the wells (in duplicate) and the plates were incubated for 20 minutes in a CO2 incubator at 37° C. After incubation, the reaction was stopped by keeping the plates on ice water mix for 2-3 minutes and then the incubation mix was aspirated completely from the wells. The wells were washed two times with 250 μL of chilled unlabelled 1 mM taurocholic acid dissolved in HEPES (Gibco 15630080)-buffered (10 mM) HBSS (Gibco 14175079) (pH 7.4). The plates were tapped against a paper towel after every wash to ensure maximum removal of blocking buffer.
100 μL of MicroScint-20 (PerkinElmer 6013621) was added to the wells and kept overnight at room temperature before reading the plates in TopCount NXT™ Microplate Scintillation and Luminescence Counter from PerkinElmer under 3H Test protocol (set at 120 seconds reading time per well).
Preparation of Test Compound Dilutions
All test compounds were provided in powder form at room temperature. 10 mM DMSO stocks of the test compounds were prepared, aliquoted and stored at −20° C. From the 10 mM DMSO stock of the compounds, a 3-fold serial dilution in DMSO was prepared to get a total of 10 dilutions of the test compounds. 0.5 μL of this dilution in DMSO was added to 250 μL of FBS-free basal media containing 3H-taurocholic acid and cold taurocholic acid to prepare the incubation mixture.

[1] = Bidirectional permeability assay (Caco-2 cells); assay type: in vitro ADME; details: human, 10 μM in FaSSIF buffer; for Papp A→B at 120 min, 10 μM: Caco-2, pH 7.4, absorptive direction (A2B); for Papp B→A at 120 min, 10 μM: Caco-2, pH 7.4, secretory direction (B2A)
Procedure: Bidirectional Permeability Assay (Caco-2 Cells)
Caco-2 cells (Evotec) were seeded at a density of 70,000 cells/well in Millicell® 24-well cell culture insert plates and maintained in an incubator (37° C., 5% CO2, 95% RH) for 21 days with media change on alternate days.
Stock solutions (10 mM) of the test compounds, atenolol (low permeability marker), propranolol (high permeability marker) and digoxin (substrate for P-gp transport pathway) were prepared in dimethylsulfoxide (DMSO). An intermediate stock solution (1 mM) was prepared by diluting 10 μL of 10 mM master stock solution with 90 μL of neat DMSO. A working stock solution (10 μM) was prepared by diluting 50 μL of 1 mM with 4950 μL of FaSSIF buffer. Post addition of compounds to the FaSSIF, samples were subjected to sonication for 2 hours, and centrifuged at 4000 RPM for 30 minutes at 37° C. The 4 mL of resultant supernatant was directly used in the assay. The final DMSO concentration in the transport experiments was 1%.
On the day of assay, Caco-2 monolayers were washed twice with transport buffer (HBSS, pH 7.4) and pre-incubated for 30 min (37° C., 5% CO2, 95% RH) in an incubator. The electrical resistance of the monolayers was measured with a Millicell®-ERS system. Monolayers with trans-epithelial electrical resistance (TEER) values greater than 350 ohm·cm^2 were selected for the assay.
The assay was conducted in absorptive direction (A2B) and secretory (B2A) directions. Transport experiments were initiated by addition of transport assay buffer (FaSSIF buffer prepared in HBSS) consisting of compounds to the donor compartment (apical chamber A-B; basolateral chamber B-A) in duplicate (n=2) wells. Drug free HBSS buffer (pH 7.4) containing 1% bovine serum albumin (BSA) was introduced to the receiver (A-B-basolateral; B-A-Apical) compartments. The volumes of apical and basolateral compartments were 0.4 and 0.8 mL, respectively. After adding dosing solution, plates were incubated in an incubator for 120 minutes at 37° C. After 120 minutes, donor and receiver samples were collected and matrix matched (1:1, 30 μL study sample+30 μL blank buffer) with the opposite buffer. Dosing samples matrix matched (1:1, 30 μL study sample+30 μL blank buffer) with the opposite buffer. Samples were processed by adding acetonitrile containing internal standard (60 μL study sample+200 μL acetonitrile containing internal standard-Tolbutamide, 500 ng/mL). Samples were vortexed and centrifuged at 4000 rpm for 10 minutes. The obtained supernatant (100 μL) was diluted with 100 μL of water and transferred to fresh 96 well plates. The concentration of compounds in the samples was analyzed by liquid chromatography tandem mass spectrometry (LC-MS/MS) method using discovery grade bio-analytical method, as applicable.
The mean apparent permeability (Papp, ×10^−6 cm/sec) of the test compounds, atenolol, propranolol and digoxin were calculated as follows:
where dq/dt=rate of transport (rate of transport of compound in the receiver compartment), C0=initial concentration in the donor compartment, A=surface area of the effective filter membrane.

SMILES: CCCCC1CN(c2ccccc2)c2cc(SC)c(OCC3(C(=O)O)CC3)cc2S(=O)(=O)N1C (centres unmarked) [Example 3, 1-(((3-Butyl-2-methyl-7-(methylthio)-1,1-dioxido-5-phenyl-2,3,4,5-tetrahydro-1,2,5-benzothiadiazepin-8-yl)oxy)methyl)cyclopropane-1-carboxylic acid]
IC50 (Human IBAT): 274 nM | Papp A→B at 120 min, 10 μM [1]: 20.8 ×10⁻⁶ cm/s | Papp B→A at 120 min, 10 μM [1]: 12.9 ×10⁻⁶ cm/s

SMILES: CCCCC1CN(c2ccc(F)cc2)c2cc(SC)c(OCC(C)(C)C(=O)O)cc2S(=O)(=O)N1C (centres unmarked) [Example 13, 3-((3-butyl-5-(4-fluorophenyl)-2-methyl-7-(methylthio)-1,1-dioxido-2,3,4,5-tetrahydro-1,2,5-benzothiadiazepin-8-yl)oxy)-2,2-dimethylpropanoic acid]
IC50 (Human IBAT): 360 nM | Papp A→B at 120 min, 10 μM [1]: 10.8 ×10⁻⁶ cm/s | Papp B→A at 120 min, 10 μM [1]: 8.6 ×10⁻⁶ cm/s

SMILES: CCCCC1CN(c2ccccc2)c2cc(SCC)c(OCC3(C(=O)O)CC3)cc2S(=O)(=O)N1C (single isomer, unassigned) [8, enantiomer 1]
IC50 (Human IBAT): 166 nM | Papp A→B at 120 min, 10 μM [1]: 15.8 ×10⁻⁶ cm/s | Papp B→A at 120 min, 10 μM [1]: 5 ×10⁻⁶ cm/s

SMILES: CCCCC1CN(c2ccccc2)c2cc(SC)c(OCC(OC)C(=O)O)cc2S(=O)(=O)N1C (single isomer, unassigned) [32, diastereomer 1]
IC50 (Human IBAT): 2400 nM | Papp A→B at 120 min, 10 μM [1]: 5.2 ×10⁻⁶ cm/s | Papp B→A at 120 min, 10 μM [1]: 15.9 ×10⁻⁶ cm/s

SMILES: CCCCC1CN(c2ccc(F)cc2)c2cc(SCC)c(OCC(O)C(=O)O)cc2S(=O)(=O)N1C (centres unmarked) [Example 33, 3-((3-butyl-7-(ethylthio)-5-(4-fluorophenyl)-2-methyl-1,1-dioxido-2,3,4,5-tetrahydro-1,2,5-benzothiadiazepin-8-yl)oxy)-2-hydroxypropanoic acid]
IC50 (Human IBAT): 117 nM | Papp A→B at 120 min, 10 μM [1]: 2.2 ×10⁻⁶ cm/s | Papp B→A at 120 min, 10 μM [1]: 4.3 ×10⁻⁶ cm/s

SMILES: CCCCC1CN(c2ccccc2)c2cc(SCC)c(OCC(C)(C)C(=O)O)cc2S(=O)(=O)N1C (centres unmarked) [Example 5, 3-((3-Butyl-7-(ethylthio)-2-methyl-1,1-dioxido-5-phenyl-2,3,4,5-tetrahydro-1,2,5-benzothiadiazepin-8-yl)oxy)-2,2-dimethylpropanoic acid]
IC50 (Human IBAT): 615 nM | Papp A→B at 120 min, 10 μM [1]: 9.4 ×10⁻⁶ cm/s | Papp B→A at 120 min, 10 μM [1]: 7.2 ×10⁻⁶ cm/s

SMILES: CCCCC1CN(c2ccccc2)c2cc(SCC)c(OCC3(C(=O)O)CC3)cc2S(=O)(=O)N1C (centres unmarked) [Example 7, 1-(((3-Butyl-7-(ethylthio)-2-methyl-1,1-dioxido-5-phenyl-2,3,4,5-tetrahydro-1,2,5-benzothiadiazepin-8-yl)oxy)methyl)cyclopropane-1-carboxylic acid]
IC50 (Human IBAT): 405 nM | Papp A→B at 120 min, 10 μM [1]: 8.1 ×10⁻⁶ cm/s | Papp B→A at 120 min, 10 μM [1]: 3.8 ×10⁻⁶ cm/s

SMILES: CCCCC1CN(c2ccccc2)c2cc(SC)c(OCC3(C(=O)O)CC3)cc2S(=O)(=O)N1C (single isomer, unassigned) [4, enantiomer 2]
IC50 (Human IBAT): 294 nM | Papp A→B at 120 min, 10 μM [1]: 18.8 ×10⁻⁶ cm/s | Papp B→A at 120 min, 10 μM [1]: 13 ×10⁻⁶ cm/s

SMILES: CCCCC1CN(c2ccccc2)c2cc(SCC)c(OCC(C)(C)C(=O)O)cc2S(=O)(=O)N1C (single isomer, unassigned) [6, enantiomer 2]
IC50 (Human IBAT): 290 nM | Papp A→B at 120 min, 10 μM [1]: 8.6 ×10⁻⁶ cm/s | Papp B→A at 120 min, 10 μM [1]: 6.5 ×10⁻⁶ cm/s

Other lines, results leading:

IC50 (Human IBAT): 412 nM
SMILES: CCCCC1CN(c2ccccc2)c2cc(SC)c(OCC(C)(OC)C(=O)O)cc2S(=O)(=O)N1C (single isomer, unassigned) [24, diastereomer 2]

IC50 (Human IBAT): 428 nM | Papp A→B at 120 min, 10 μM [1]: 11.7 ×10⁻⁶ cm/s | Papp B→A at 120 min, 10 μM [1]: 21.5 ×10⁻⁶ cm/s
SMILES: CCCCC1CN(c2ccccc2)c2cc(SC)c(OCC(C)(OC)C(=O)O)cc2S(=O)(=O)N1C (centres unmarked) [Example 22, 3-((3-Butyl-2-methyl-7-(methylthio)-1,1-dioxido-5-phenyl-2,3,4,5-tetrahydro-1,2,5-benzothiadiazepin-8-yl)oxy)-2-methoxy-2-methylpropanoic acid]

IC50 (Human IBAT): 1030 nM
SMILES: CCCCC1CN(c2ccccc2)c2cc(SC)c(OCC(C)(OC)C(=O)O)cc2S(=O)(=O)N1C (single isomer, unassigned) [24, diastereomer 1]

IC50 (Human IBAT): 682 nM | Papp A→B at 120 min, 10 μM [1]: 13.2 ×10⁻⁶ cm/s | Papp B→A at 120 min, 10 μM [1]: 15.2 ×10⁻⁶ cm/s
SMILES: CCCCC1CN(c2ccccc2)c2cc(SC)c(OCC(C)(C)C(=O)O)cc2S(=O)(=O)N1C (single isomer, unassigned) [2, enantiomer 2]

IC50 (Human IBAT): 257 nM | Papp A→B at 120 min, 10 μM [1]: 10.6 ×10⁻⁶ cm/s | Papp B→A at 120 min, 10 μM [1]: 30.2 ×10⁻⁶ cm/s
SMILES: CCCCC1CN(c2ccccc2)c2cc(SC)c(OCC(C)(OC)C(=O)O)cc2S(=O)(=O)N1C (single isomer, unassigned) [Example 23, 3-((3-Butyl-2-methyl-7-(methylthio)-1,1-dioxido-5-phenyl-2,3,4,5-tetrahydro-1,2,5-benzothiadiazepin-8-yl)oxy)-2-methoxy-2-methylpropanoic acid]
